Measurements as given in US20160074462A1, “Method of Treating HCV” (priority 2014, published 2016).

Conditions: human, in vivo
Text: Food effect on the drug exposure (e.g., AUC) of Compound 1/r, Compound 2 and Compound 3 was not known. Food effect on the drug exposure of these compounds was also not considered predictable.
The increase in exposure was similar regardless of meal type (e.g., high-fat vs. moderate-fat) or calorie content (500-600 kcal vs. 1000 kcal). Therefore, the combination of Compound 1/r, Compound 2 and Compound 3, the combination of Compound 1/r and Compound 3, as well as the combination of Compound 1/r and Compound 2, can be taken with food without regard to the specific fat or calorie content.

Structure (SMILES) | increase of exposure (AUC) by food
COc1c(-c2ccc3cc(NS(C)(=O)=O)ccc3c2)cc(-n2ccc(=O)[nH]c2=O)cc1C(C)(C)C [Compound 2, N-(6-(3-tert-butyl-5-(2,4-dioxo-3,4-dihydropyrimidin-1(2H)-yl)-2-methoxyphenyl)naphthalen-2-yl)methanesulfonamide] | ≤ 53%
Cc1cnc(C(=O)N[C@H]2CCCCC/C=C\[C@@H]3C[C@@]3(C(=O)NS(=O)(=O)C3CC3)NC(=O)[C@@H]3C[C@@H](Oc4nc5ccccc5c5ccccc45)CN3C2=O)cn1 [Compound 1, (2R,6S,13aS,14aR,16aS,Z)-N-(cyclopropylsulfonyl)-6-(5-methylpyrazine-2-carboxamido)-5,16-dioxo-2-(phenanthridin-6-yloxy)-1,2,3,5,6,7,8,9,10,11,13a,14,14a,15,16,16a-hexadecahydrocyclopropa[e]pyrrolo[1,2-a][1,4]diazacyclop entadecine-14a-carboxamide] | ≤ 367%
COC(=O)N[C@H](C(=O)N1CCCC1C(=O)Nc1ccc(C2CC[C@@H](c3ccc(NC(=O)[C@@H]4CCCN4C(=O)[C@@H](NC(=O)OC)C(C)C)cc3)N2c2ccc(C(C)(C)C)cc2)cc1)C(C)C (stereo partly shown) [Compound 3] | up to 127%
CC(C)c1nc(CN(C)C(=O)N[C@H](C(=O)N[C@@H](Cc2ccccc2)C[C@H](O)[C@H](Cc2ccccc2)NC(=O)OCc2cncs2)C(C)C)cs1 [ritonavir, reference compound] | ≤ 63%
